# From patent US20170042888A1, “GLYT1 INHIBITORS FOR USE IN THE TREATMENT OF HEMATOLOGICAL DISORDERS” (Hoffmann-La Roche Inc., priority 2014, published 2017)
# Columns and labels:
# [1] = test system: female Wistar rats; test: 8-week dietary admix study in female Wistar rats, hematological parameters in peripheral blood (SYSMEX XT analyser); assay type: in vivo, rat
# Description: FIG. 1 Effect of 4-(3-fluoro-5-trifluoromethyl-pyridin-2-yl)-piperazin-1-yl]-[5-methanesulfonyl-2-((S)-2,2,2-trifluoro-1-methyl-ethoxy)-phenyl]-methanone on mean group hemoglobin in female rats (8-week study)
# 4-(3-Fluoro-5-trifluoromethyl-pyridin-2-yl)-piperazin-1-yl]-[5-methanesulfonyl-2-((S)-2,2,2-trifluoro-1-methyl-ethoxy)-phenyl]-methanone was administered daily for 8-weeks by dietary admix to female Wistar rats to achieve doses of 1, 3, and 8 mg/kg/day, followed by a 4-week recovery period off treatment. The control group received standard diet only during the whole study period. At various time points during the study hematological parameters including Hb were investigated in peripheral blood using a SYSMEX XT analyser. Data represent group mean values and error bars indicate standard deviation (SD).
# FIG. 3 Effect of 4-(3-fluoro-5-trifluoromethyl-pyridin-2-yl)-piperazin-1-yl]-[5-methanesulfonyl-2-((S)-2,2,2-trifluoro-1-methyl-ethoxy)-phenyl]-methanone on mean group MCH in female rats (8-week study)
# 4-(3-fluoro-5-trifluoromethyl-pyridin-2-yl)-piperazin-1-yl]-[5-methanesulfonyl-2-((S)-2,2,2-trifluoro-1-methyl-ethoxy)-phenyl]-methanone was administered daily for 8-weeks by dietary admix to female Wistar rats to achieve doses of 1, 3, and 8 mg/kg/day followed by a 4-week recovery period off treatment. The control group received standard diet during the whole study period. At various time points during the study hematological parameters including MCH were investigated in peripheral blood using a SYSMEX XT analyser. Data represent group mean values and error bars indicate the standard deviation (SD).
# [2] = test system: soluble transferrin receptor (sTfrR); test: 36-week oral study in cynomolgus monkeys, sTfR in peripheral blood (SISCAPA assay with mass spectrometry); assay type: in vivo, cynomolgus monkey; settings: cynomolgus monkeys, 1, 3 and 9 mg/kg/day by capsule via oral gavage for 36 weeks (FIG. 5)
# Description: FIG. 5 Effect of 4-(3-fluoro-5-trifluoromethyl-pyridin-2-yl)-piperazin-1-yl]-[5-methanesulfonyl-2-((S)-2,2,2-trifluoro-1-methyl-ethoxy)-phenyl]-methanone on sTrfR in female cynomolgus monkeys
# 4-(3-fluoro-5-trifluoromethyl-pyridin-2-yl)-piperazin-1-yl]-[5-methanesulfonyl-2-((S)-2,2,2-trifluoro-1-methyl-ethoxy)-phenyl]-methanone was administered by capsule via oral gavage to 4 male and 4 female cynomolgus monkeys per group at dose levels of control vehicle, 1, 3 and 9 mg/kg/day for 36 weeks. An additional 2 animals per sex from the control and high-dose group were maintained for an additional 13-week recovery period for assessment of reversibility of any findings. Measurement of sTfR was performed on various occasions during the study in peripheral blood samples. Measurements were done using a SISCAPA Assay Technologies Inc. developed assay, designed to identify the soluble fragment of the human transferrin receptor (sTfR) in serum, plasma and blood using the SISCAPA® workflow in combination with mass spectrometry. The human assay was adapted and validated for cynomolgus sTf measurements. Data shown represent group mean values, error bars indicate the standard deviation.
# [3] = test system: female Wistar rats; test: 26-week oral gavage study in female Wistar rats, hematological parameters in peripheral blood (Bayer ADVIA 120); assay type: in vivo, rat
# Description: FIG. 2 Effect of [5-Methanesulfonyl-2-((S)-2,2,2-trifluoro-1-methyl-ethoxy) phenyl]-(3-trifluoromethyl-5,7-dihydro-pyrrolo[3,4-b]pyridin-6-yl)-methanone on mean group hemoglobin in female rats (26-week study)
# (§1) [5-Methanesulfonyl-2-((S)-2,2,2-trifluoro-1-methyl-ethoxy)phenyl]-(3-trifluoromethyl-5,7-dihydro-pyrrolo[3,4-b]pyridin-6-yl)-methanone was administered daily for 26-weeks by oral gavage to 20 females Wistar rats per group at doses of 2, 6 and 12 mg/kg/day, followed by a 4-week recovery period off treatment for which 6 additional females where allocated per dose group. The control group was treated with a vehicle control during the dosing period. At various time points during the study hematological parameters including Hb were investigated in peripheral blood using the Bayer, ADVIA 120 hematology analyser. Data represent group mean values and error bars indicate the standard deviation (SD).
# FIG. 4 Effect of [5-Methanesulfonyl-2-((S)-2,2,2-trifluoro-1-methyl-ethoxy)phenyl](3-trifluoromethyl-5,7-dihydro-pyrrolo[3,4-b]pyridin-6-yl)-methanone on mean group MCH in female rats (26-week study)
# as §1, with “[5-Methanesulfonyl-2-((S)-2,2,2-trifluoro-1-methyl-ethoxy)phenyl](3-trifluoromethyl-5,7-dihydro-pyrrolo[3,4-b]pyridin-6-yl)-methanone” for “[5-Methanesulfonyl-2-((S)-2,2,2-trifluoro-1-methyl-ethoxy)phenyl]-(3-trifluoromethyl-5,7-dihydro-pyrrolo[3,4-b]pyridin-6-yl)-methanone”, “haematology” for “hematology”
SMILES,"overall maximal decrease in total hemoglobin concentration ([1]; female Wistar rats, 1, 3 and 8 mg/kg/day by dietary admix for 8 weeks) [%]","induced erythropoiesis type ([1]; female Wistar rats, 1, 3 and 8 mg/kg/day by dietary admix for 8 weeks, all dose levels)","total hemoglobin concentration ([1]; female Wistar rats, 1, 3 and 8 mg/kg/day by dietary admix for 8 weeks, all dose levels (FIG. 1))","intracellular hemoglobin, MCH ([1]; female Wistar rats, 1, 3 and 8 mg/kg/day by dietary admix for 8 weeks, all dose levels (FIG. 3))","reversibility of the hemoglobin effect ([1]; female Wistar rats, 4-week recovery period off treatment after 8 weeks)",soluble transferrin receptor (sTfrR) in peripheral blood [2],"overall maximal decrease in total hemoglobin concentration ([3]; female Wistar rats, 2, 6 and 12 mg/kg/day by oral gavage for 26 weeks) [%]","induced erythropoiesis type ([3]; female Wistar rats, 2, 6 and 12 mg/kg/day by oral gavage for 26 weeks, all dose levels)","total hemoglobin concentration ([3]; female Wistar rats, 2, 6 and 12 mg/kg/day by oral gavage for 26 weeks, all dose levels (FIG. 2))","intracellular hemoglobin, MCH ([3]; female Wistar rats, 2, 6 and 12 mg/kg/day by oral gavage for 26 weeks, all dose levels (FIG. 4))","reversibility of the hemoglobin effect ([3]; female Wistar rats, 4-week recovery period off treatment after 26 weeks)"
"C[C@H](Oc1ccc(S(C)(=O)=O)cc1C(=O)N1CCN(c2ncc(C(F)(F)F)cc2F)CC1)C(F)(F)F [[4-(3-fluoro-5-trifluoromethyl-pyridin-2-yl)-piperazin-1-yl]-[5-methanesulfonyl-2-((S)-2,2,2-trifluoro-1-methyl-ethoxy)-phenyl]-methanone]",≤ 20,"microcytic, hypochromic erythropoiesis",reduction,reduction,reversible,dose-dependent decrease,–,–,–,–,–
"C[C@H](Oc1ccc(S(C)(=O)=O)cc1C(=O)N1Cc2cc(C(F)(F)F)cnc2C1)C(F)(F)F [[5-methanesulfonyl-2-((S)-2,2,2-trifluoro-1-methyl-ethoxy)-phenyl]-(3-trifluoromethyl-5,7-dihydro-pyrrolo[3,4-b]pyridin-6-yl)-methanone]",–,–,–,–,–,–,≤ 20,"microcytic, hypochromic erythropoiesis",reduction,reduction,reversible
